The target in this test is T1, human LPA1 (Homo sapiens, UniProt Q92633).
T1 construct: expressed in transfected cells; host or cells: Chinese hamster ovary (CHO) cells
T1 sequence (Q92633 whole entry): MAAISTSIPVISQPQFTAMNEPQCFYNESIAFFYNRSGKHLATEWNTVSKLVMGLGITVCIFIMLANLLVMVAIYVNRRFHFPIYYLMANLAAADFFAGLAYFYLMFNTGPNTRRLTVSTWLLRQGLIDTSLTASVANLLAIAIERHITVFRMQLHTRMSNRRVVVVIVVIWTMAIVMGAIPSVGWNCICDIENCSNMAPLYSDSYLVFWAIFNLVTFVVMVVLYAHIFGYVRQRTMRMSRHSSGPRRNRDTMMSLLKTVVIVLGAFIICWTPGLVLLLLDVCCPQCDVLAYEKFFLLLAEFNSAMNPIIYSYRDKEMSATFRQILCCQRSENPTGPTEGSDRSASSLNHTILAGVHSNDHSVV
Description: LPA1 functional antagonist assay (LPA-induced calcium flux in CHO cells overexpressing human LPA1). The format is cell-based. The conditions noted are these: inhibition of calcium flux induced by 10 nM LPA, CHO cells overexpressing human LPA1; read-out: hLPA1 IC50. The gist of the method: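 CHO cells overexpressing human LPA1, dye-loaded 30 min at 37 °C, then given compound (0.08 nM–5 μM final, 0.5% DMSO) in HBSS/20 mM HEPES/0.1% fatty-acid-free BSA for 20 min at room temperature before 10 nM LPA. IC50 as 50% inhibition of LPA-evoked calcium flux, 4-parameter logistic fit.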
Turning to `CCCOCc1nnn(Cc2c(-c3ccc(O[C@H]4CCC[C@H](C(=O)O)C4)c(C)n3)nnn2C)n1` [Example 302, (1S,3S)-3-{[2-methyl-6-(1-methyl-5-{[5-(propoxymethyl)-2H-1,2,3,4-tetrazol-2-yl]methyl}-1H-1,2,3-triazol-4-yl)pyridin-3-yl]oxy}cyclohexane-1-carboxylic acid], the IC50 was determined as 0.063 µM.
Consider `Cc1ccn(Cc2nnnn2Cc2c(-c3ccc(O[C@H]4CCC[C@H](C(=O)O)C4)c(C)n3)nnn2C)n1` [Example 303, (1S,3S)-3-({2-methyl-6-[1-methyl-5-({5-[(3-methyl-1H-pyrazol-1-yl)methyl]-1H-1,2,3,4-tetrazol-1-yl}methyl)-1H-1,2,3-triazol-4-yl]pyridin-3-yl}oxy)cyclohexane-1-carboxylic acid], for which the 50% inhibitory concentration (IC50) was found to be 0.951 µM.
As for `Cc1nc(-c2nnn(C)c2Cn2nnnc2COc2ccccc2)ccc1O[C@H]1CCC[C@H](C(=O)O)C1` [Example 304, (1S,3S)-3-{[2-methyl-6-(1-methyl-5-{[5-(phenoxymethyl)-1H-1,2,3,4-tetrazol-1-yl]methyl}-1H-1,2,3-triazol-4-yl)pyridin-3-yl]oxy}cyclohexane-1-carboxylic acid], the half-maximal inhibitory concentration (IC50) amounted to 0.124 µM.
For the compound `CCCOCc1nnnn1Cc1c(-c2ccc(O[C@H]3CCC[C@H](C(=O)O)C3)c(C)n2)nnn1C` [Example 305, (1S,3S)-3-{[2-methyl-6-(1-methyl-5-{[5-(propoxymethyl)-1H-1,2,3,4-tetrazol-1-yl]methyl}-1H-1,2,3-triazol-4-yl)pyridin-3-yl]oxy}cyclohexane-1-carboxylic acid], the 50% inhibitory concentration (IC50) was found to be 0.243 µM.
`CCc1nc(-c2nnn(C)c2Cn2nnnc2CC2CC2)ccc1O[C@H]1CCC[C@H](C(=O)O)C1` [Example 306, (1S,3S)-3-{[6-(5-{[5-(cyclopropyl-methyl)-1H-1,2,3,4-tetrazol-1-yl]methyl}-1-methyl-1H-1,2,3-triazol-4-yl)-2-ethylpyridin-3-yl]oxy}cyclohexane-1-carboxylic acid]: the half-maximal inhibitory concentration (IC50) worked out at 0.205 µM.
For `CCc1nc(-c2nnn(C)c2Cn2nnc(CC3CC3)n2)ccc1O[C@H]1CCC[C@H](C(=O)O)C1` [Example 307, (1S,3S)-3-{[6-(5-{[5-(cyclopropyl-methyl)-2H-1,2,3,4-tetrazol-2-yl]methyl}-1-methyl-1H-1,2,3-triazol-4-yl)-2-ethylpyridin-3-yl]oxy}cyclohexane-1-carboxylic acid], the 50% inhibitory concentration (IC50) came to 0.032 µM.
For `Cc1nc(-c2nnn(C)c2Cn2nnc(C3CCOCC3)n2)ccc1O[C@H]1CCC[C@H](C(=O)O)C1` [Example 308, (1S,3S)-3-{[2-methyl-6-(1-methyl-5-{[5-(oxan-4-yl)-2H-1,2,3,4-tetrazol-2-yl]methyl}-1H-1,2,3-triazol-4-yl)pyridin-3-yl]oxy}cyclohexane-1-carboxylic acid] the value was 0.714 µM.
Take `Cc1nc(-c2nnn(C)c2Cn2nnnc2CCC(C)C)ccc1O[C@H]1CCC[C@H](C(=O)O)C1` [Example 309, (1S,3S)-3-{[2-methyl-6-(1-methyl-5-{[5-(3-methylbutyl)-1H-1,2,3,4-tetrazol-1-yl]methyl}-1H-1,2,3-triazol-4-yl)pyridin-3-yl]oxy}cyclohexane-1-carboxylic acid]: the half-inhibitory concentration (IC50) stood at 0.191 µM.
Turning to `Cc1nc(-c2nnn(C)c2Cn2nnc(CCC(C)C)n2)ccc1O[C@H]1CCC[C@H](C(=O)O)C1` [Example 310, (1S,3S)-3-{[2-methyl-6-(1-methyl-5-{[5-(3-methylbutyl)-2H-1,2,3,4-tetrazol-2-yl]methyl}-1H-1,2,3-triazol-4-yl)pyridin-3-yl]oxy}cyclohexane-1-carboxylic acid], the concentration for half-maximal inhibition (IC50) was found to be 0.024 µM.
For `Cc1nc(-c2nnn(C)c2Cn2nnnc2N2CCCC2)ccc1O[C@H]1CCC[C@H](C(=O)O)C1` [Example 311, (1S,3S)-3-{[2-methyl-6-(1-methyl-5-{[5-(pyrrolidin-1-yl)-1H-1,2,3,4-tetrazol-1-yl]methyl}-1H-1,2,3-triazol-4-yl)pyridin-3-yl]oxy}cyclohexane-1-carboxylic acid] the value was 0.605 µM; for `Cc1nc(-c2nnn(C)c2Cn2nnc(N3CCCC3)n2)ccc1O[C@H]1CCC[C@H](C(=O)O)C1` [Example 312, (1S,3S)-3-{[2-methyl-6-(1-methyl-5-{[5-(pyrrolidin-1-yl)-2H-1,2,3,4-tetrazol-2-yl]methyl}-1H-1,2,3-triazol-4-yl)pyridin-3-yl]oxy}cyclohexane-1-carboxylic acid], 0.234 µM.
Consider `COc1cccc(Cc2nnnn2Cc2c(-c3ccc(O[C@H]4CCC[C@H](C(=O)O)C4)c(C)n3)nnn2C)c1` [Example 313, (1S,3S)-3-({6-[5-({5-[(3-methoxy-phenyl)methyl]-1H-1,2,3,4-tetrazol-1-yl}methyl)-1-methyl-1H-1,2,3-triazol-4-yl]-2-methylpyridin-3-yl}oxy)cyclohexane-1-carboxylic acid], for which the half-inhibitory concentration (IC50) turned out to be 0.277 µM.
As to `COc1cccc(Cc2nnn(Cc3c(-c4ccc(O[C@H]5CCC[C@H](C(=O)O)C5)c(C)n4)nnn3C)n2)c1` [Example 314, (1S,3S)-3-({6-[5-({5-[(3-methoxy-phenyl)methyl]-2H-1,2,3,4-tetrazol-2-yl}methyl)-1-methyl-1H-1,2,3-triazol-4-yl]-2-methylpyridin-3-yl}oxy)cyclohexane-1-carboxylic acid], the 50% inhibitory concentration (IC50) was 0.012 µM.
`Cc1nc(-c2nnn(C)c2Cn2nnnc2CC2CCCC2)ccc1O[C@H]1CCC[C@H](C(=O)O)C1` [Example 315, (1S,3S)-3-{[6-(5-{[5-(cyclopentyl-methyl)-1H-1,2,3,4-tetrazol-1-yl]methyl}-1-methyl-1H-1,2,3-triazol-4-yl)-2-methylpyridin-3-yl]oxy}cyclohexane-1-carboxylic acid]: the half-inhibitory concentration (IC50) came to 0.154 µM.
Take `Cc1nc(-c2nnn(C)c2Cn2nnc(OCCC3CC3)n2)ccc1O[C@H]1CCC[C@H](C(=O)O)C1` [Example 316, (1 S,3S)-3-((6-(5-((5-(2-cyclopropylethoxy)-2H-tetrazol-2-yl)methyl)-1-methyl-1H-1,2,3-triazol-4-yl)-2-methylpyridin-3-yl)oxy)cyclohexane-1-carboxylic acid]: the 50% inhibitory concentration (IC50) amounted to 0.022 µM.
Regarding `Cc1nc(-c2nnn(C)c2Cn2ccc(Cc3ccccc3)n2)ccc1O[C@H]1CCC[C@H](C(=O)O)C1` [Example 317, (1S,3S)-3-((6-(5-((3-benzyl-1H-pyrazol-1-yl)methyl)-1-methyl-1H-1,2,3-triazol-4-yl)-2-methylpyridin-3-yl)oxy)cyclo-hexane-1-carboxylic acid], the IC50 is 0.063 µM.
Regarding `CCc1nnn(Cc2c(-c3ccc(O[C@H]4CCC[C@H](C(=O)O)C4)c(C)n3)nnn2C)n1` [Example 318, (1S,3S)-3-((6-(5-((5-ethyl-2H-tetrazol-2-yl)methyl)-1-methyl-1H-1,2,3-triazol-4-yl)-2-methylpyridin-3-yl)oxy)cyclo-hexane-1-carboxylic acid], the half-maximal inhibitory concentration (IC50) turned out to be 0.414 µM.
For `Cc1nc(-c2nnn(C)c2Cn2nnnc2C2CC2)ccc1O[C@H]1CCC[C@H](C(=O)O)C1` [Example 319, (1S,3S)-3-((6-(5-((5-cyclopropyl-1H-tetrazol-1-yl)methyl)-1-methyl-1H-1,2,3-triazol-4-yl)-2-methylpyridin-3-yl)oxy)cyclo-hexane-1-carboxylic acid] the value was 0.673 µM; for `Cc1nc(-c2nnn(C)c2Cn2nnc(-c3cccc(F)c3)n2)ccc1O[C@H]1CCC[C@H](C(=O)O)C1` [Example 320, (1S,3S)-3-((6-(5-((5-(3-fluoro-phenyl)-2H-tetrazol-2-yl)methyl)-1-methyl-1H-1,2,3-triazol-4-yl)-2-methylpyridin-3-yl)oxy)cyclo-hexane-1-carboxylic acid], 0.058 µM; for `Cc1nc(-c2nnn(C)c2Cn2nnnc2-c2cccc(F)c2)ccc1O[C@H]1CCC[C@H](C(=O)O)C1` [Example 321, (1S,3S)-3-((6-(5-((5-(3-fluoro-phenyl)-1H-tetrazol-1-yl)methyl)-1-methyl-1H-1,2,3-triazol-4-yl)-2-methylpyridin-3-yl)oxy)cyclo-hexane-1-carboxylic acid], 0.428 µM.
In the case of `Cc1nc(-c2nnn(C)c2Cn2nnc(-c3ccc(F)cc3)n2)ccc1O[C@H]1CCC[C@H](C(=O)O)C1` [Example 322, (1S,3S)-3-((6-(5-((5-(4-fluoro-phenyl)-2H-tetrazol-2-yl)methyl)-1-methyl-1H-1,2,3-triazol-4-yl)-2-methylpyridin-3-yl)oxy)cyclo-hexane-1-carboxylic acid], the IC50 is 0.243 µM.
Consider `Cc1nc(-c2nnn(C)c2Cn2nnnc2-c2ccc(F)cc2)ccc1O[C@H]1CCC[C@H](C(=O)O)C1` [Example 323, (1S,3S)-3-((6-(5-((5-(4-fluoro-phenyl)-1H-tetrazol-1-yl)methyl)-1-methyl-1H-1,2,3-triazol-4-yl)-2-methylpyridin-3-yl)oxy)cyclo-hexane-1-carboxylic acid], for which the IC50 is 0.414 µM.
As for `Cc1nc(-c2nnn(C)c2Cn2nnc(Cc3ccc(Cl)cc3)n2)ccc1O[C@H]1CCC[C@H](C(=O)O)C1` [Example 324, (1S,3S)-3-((6-(5-((5-(4-chloro-benzyl)-2H-tetrazol-2-yl)methyl)-1-methyl-1H-1,2,3-triazol-4-yl)-2-methylpyridin-3-yl)oxy)cyclo-hexane-1-carboxylic acid], the IC50 was 0.038 µM.
Take `Cc1nc(-c2nnn(C)c2Cn2nnnc2Cc2ccc(Cl)cc2)ccc1O[C@H]1CCC[C@H](C(=O)O)C1` [Example 325, (1S,3S)-3-((6-(5-((5-(4-chloro-benzyl)-1H-tetrazol-1-yl)methyl)-1-methyl-1H-1,2,3-triazol-4-yl)-2-methylpyridin-3-yl)oxy)cyclo-hexane-1-carboxylic acid]: the IC50 was found to be 0.167 µM.
The same measure for `Cc1ccc(Oc2nnn(Cc3c(-c4ccc(O[C@H]5CCC[C@H](C(=O)O)C5)c(C)n4)nnn3C)n2)cc1` [Example 326, (1S,3S)-3-((2-methyl-6-(1-methyl-5-((5-(p-tolyloxy)-2H-tetrazol-2-yl)methyl)-1H-1,2,3-triazol-4-yl)pyridin-3-yl)oxy)cyclohexane-1-carboxylic acid]: 0.023 µM.

The values above are taken from patent publication US11319315B2, “Cyclohexyl acid triazole azoles as LPA antagonists” (BRISTOL-MYERS SQUIBB COMPANY, priority 2017, dated 2022).
